What follows are compounds tested on genotype A, "Long" strain RSV (assay: RSV-A assay (CPE protection in Hep-2 cells, ATPlite readout)). Settings: human respiratory syncytial virus, RSV-A Long strain, MOI 0.1, CPE protection, read-out: Human RSV-A (“Long”) EC50.
Assay type: cell-based, Human respiratory syncytial virus (HRSV)
Method in brief: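 In this cytopathic-effect protection format, infected Hep-2 cultures (MOI 0.1) are exposed to compound for 5 days. Surviving cell ATP is quantified with ATPlite, and EC50 is determined.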

| Compound | EC50 |
| --- | --- |
| COc1cc(C(=O)NC[C@](O)(c2cc3c(c(-c4cc(F)cc(F)c4F)n2)OC[C@]3(C)C(N)=O)C(F)(F)F)cc2cn(C3CC3)nc12 [Example 1247] | < 200 nM |
| COc1cc(C(=O)NCC(O)(c2cc3c(c(-c4cc(F)cc(Cl)c4)n2)OC[C@]3(C)C(N)=O)C(F)(F)F)cc2cn(C3CC3)nc12 (stereo partly shown) [Example 1252] | < 200 nM |
| COc1cc(C(=O)NC[C@](O)(c2cc3c(c(-c4cccc(Cl)c4Cl)n2)OC[C@]3(C)C(N)=O)C(F)(F)F)cc2cn(C3CC3)nc12 [Example 1253] | < 200 nM |
| COc1cc(C(=O)NC[C@](O)(c2cc3c(c(-c4ccc(Cl)cc4Cl)n2)OC[C@]3(C)C(N)=O)C(F)(F)F)cc2cn(C3CC3)nc12 [Example 1254] | < 200 nM |
| COc1cc(C(=O)NC[C@](O)(c2cc3c(c(-c4cc(Cl)ccc4Cl)n2)OC[C@]3(C)C(N)=O)C(F)(F)F)cc2cn(C3CC3)nc12 [Example 1255] | < 200 nM |
| COc1cc(C(=O)NCC(O)(c2cc3c(c(-c4cc(Cl)cc(Cl)c4)n2)OC[C@]3(C)C(N)=O)C(F)(F)F)cc2cn(C3CC3)nc12 (stereo partly shown) [Example 1256] | < 200 nM |
| COc1cc(C(=O)NC[C@](O)(c2cc3c(c(-c4ccc(Cl)c(Cl)c4F)n2)OC[C@]3(C)C(N)=O)C(F)(F)F)cc2cn(C3CC3)nc12 [Example 1257] | < 200 nM |
| COc1cc(C(=O)NC[C@](O)(c2cc3c(c(-c4cc(Cl)cc(Cl)c4F)n2)OC[C@]3(C)C(N)=O)C(F)(F)F)cc2cn(C3CC3)nc12 [Example 1258] | < 200 nM |
| COc1cc(C(=O)NC[C@](O)(c2cc3c(c(-c4cc(Cl)cc(F)c4Cl)n2)OC[C@]3(C)C(N)=O)C(F)(F)F)cc2cn(C3CC3)nc12 [Example 1259] | < 200 nM |
| COc1cc(C(=O)NC[C@](O)(c2cc3c(c(-c4ccc(Cl)c(F)c4Cl)n2)OC[C@]3(C)C(N)=O)C(F)(F)F)cc2cn(C3CC3)nc12 [Example 1260] | < 200 nM |
| COc1cc(C(=O)NC[C@](O)(c2cc3c(c(-c4cc(F)cc(F)c4Cl)n2)OC[C@]3(C)C(N)=O)C(F)(F)F)cc2cn(C3CC3)nc12 [Example 1261] | < 200 nM |
| COc1cc(C(=O)NC[C@](O)(c2cc3c(c(-c4c(Cl)ccc(Cl)c4F)n2)OC[C@]3(C)C(N)=O)C(F)(F)F)cc2cn(C3CC3)nc12 [Example 1262] | < 200 nM |
| COc1cc(C(=O)NC[C@](O)(c2cc3c(c(-c4c(F)ccc(Cl)c4Cl)n2)OC[C@]3(C)C(N)=O)C(F)(F)F)cc2cn(C3CC3)nc12 [Example 1263] | < 200 nM |
| COc1cc(C(=O)NC[C@](O)(c2cc3c(c(-c4cc(F)c(Cl)cc4Cl)n2)OC[C@]3(C)C(N)=O)C(F)(F)F)cc2cn(C3CC3)nc12 [Example 1265] | < 200 nM |
| COc1cc(C(=O)NCC(O)(c2cc3c(c(-c4cc(F)c(Cl)c(Cl)c4)n2)OC[C@]3(C)C(N)=O)C(F)(F)F)cc2cn(C3CC3)nc12 (stereo partly shown) [Example 1266] | < 200 nM |
| COc1cc(C(=O)NC[C@](O)(c2cc3c(c(-c4cc(Cl)c(Cl)cc4F)n2)OC[C@]3(C)C(N)=O)C(F)(F)F)cc2cn(C3CC3)nc12 [Example 1267] | < 200 nM |
| COc1cc(C(=O)NC[C@](O)(c2cc3c(c(C4CCC(F)(F)CC4)n2)OC[C@]3(C)C(N)=O)C(F)(F)F)cc2cn(C3CC3)nc12 [Example 1268] | < 200 nM |
| COc1cc(C(=O)NC[C@](O)(c2cc3c(c(N4CCC(F)(F)CC4)n2)OC[C@]3(C)C(N)=O)C(F)(F)F)cc2cn(C3CC3)nc12 [Example 1270] | < 200 nM |
| COc1cc(C(=O)NC[C@](O)(c2cc3c(c(N4CCCC(F)(F)C4)n2)OC[C@]3(C)C(N)=O)C(F)(F)F)cc2cn(C3CC3)nc12 [Example 1271] | < 200 nM |
| [2H]C([2H])([2H])c1nc2c(OC)cc(C(=O)NC[C@](O)(c3cc4c(c(-c5cc(Br)c(F)cc5F)n3)OC[C@]4(C)C(N)=O)C3CC3)cc2cc1Cl [Example 1272] | < 200 nM |
| COc1cc(C(=O)NC[C@](O)(c2cc3c(c(-c4cc(F)c(F)c(F)c4)n2)OC[C@]3(C)C(N)=O)C2CC2)cc2cn(C3CC3)nc12 [Example 1273] | < 200 nM |

| Compound | EC50 |
| --- | --- |
| COc1cc(C(=O)NC[C@](O)(c2cc3c(c(-c4c(F)ccc(F)c4F)n2)OC[C@]3(C)C(N)=O)C2CC2)cc2cn(C3CC3)nc12 [Example 1274] | < 200 nM |
| COc1cc(C(=O)NC[C@](O)(c2cc3c(c(-c4cc(Cl)c(F)cc4Cl)n2)OC[C@]3(C)C(N)=O)C2CC2)cc2cn(C3CC3)nc12 [Example 1275] | < 200 nM |
| COc1cc(C(=O)NC[C@](O)(c2cc3c(c(-c4cc(F)cc(F)c4)n2)OC[C@]3(C)C(N)=O)C2CC2)cc2cn(C3CC3)nc12 [Example 1276] | < 200 nM |
| COc1cc(C(=O)NC[C@](O)(c2cc3c(c(-c4ccc(F)cc4F)n2)OC[C@]3(C)C(N)=O)C2CC2)cc2cn(C3CC3)nc12 [Example 1277] | < 200 nM |
| COc1cc(C(=O)NC[C@](O)(c2cc3c(c(-c4cc(F)c(F)c(F)c4F)n2)OC[C@]3(C)C(N)=O)C2CC2)cc2cn(C3CC3)nc12 [Example 1278] | < 200 nM |
| COc1cc(C(=O)NC[C@](O)(c2cc3c(c(-c4ccc(Cl)cc4Cl)n2)OC[C@]3(C)C(N)=O)C2CC2)cc2cn(C3CC3)nc12 [Example 1279] | < 200 nM |
| COc1cc(C(=O)NC[C@](O)(c2cc3c(c(-c4cc(Cl)ccc4Cl)n2)OC[C@]3(C)C(N)=O)C2CC2)cc2cn(C3CC3)nc12 [Example 1280] | < 200 nM |
| COc1cc(C(=O)NC[C@](O)(c2cc3c(c(-c4cc(Cl)cc(Cl)c4)n2)OC[C@]3(C)C(N)=O)C2CC2)cc2cn(C3CC3)nc12 [Example 1281] | < 200 nM |
| COc1cc(C(=O)NC[C@](O)(c2cc3c(c(-c4cc(F)ccc4F)n2)OC[C@]3(C)C(N)=O)C2CC2)cc2cn(C3CC3)nc12 [Example 1282] | < 200 nM |
| COc1cc(C(=O)NC[C@](O)(c2cc3c(c(-c4cccc(Cl)c4F)n2)OC[C@]3(C)C(N)=O)C2CC2)cc2cn(C3CC3)nc12 [Example 1283] | < 200 nM |
| COc1cc(C(=O)NC[C@](O)(c2cc3c(c(-c4c(Cl)ccc(F)c4F)n2)OC[C@]3(C)C(N)=O)C(F)(F)F)cc2cn(C3CC3)nc12 [Example 1284] | < 200 nM |
| COc1cc(C(=O)NC[C@](O)(c2cc3c(c(-c4cc(F)cc(Cl)c4Cl)n2)OC[C@]3(C)C(N)=O)C2CC2)cc2cn(C3CC3)nc12 [Example 1285] | < 200 nM |
| COc1cc(C(=O)NC[C@](O)(c2cc3c(c(-c4cccc(Cl)c4Cl)n2)OC[C@]3(C)C(N)=O)C2CC2)cc2cn(C3CC3)nc12 [Example 1286] | < 200 nM |
| [2H]C([2H])([2H])c1nc2c(OC)cc(C(=O)NC[C@](O)(c3cc4c(c(-c5cc(Cl)c(F)cc5F)n3)OC[C@]4(C)C(N)=O)C3CC3)cc2cc1Cl [Example 1287] | < 200 nM |
| [2H]C([2H])([2H])c1nc2c(OC)cc(C(=O)NC[C@](O)(c3cc4c(c(-c5cc(F)c(F)cc5F)n3)OC[C@]4(C)C(N)=O)C3CC3)cc2cc1Cl [Example 1288] | < 200 nM |
| COc1cc(C(=O)NC[C@](O)(c2cc3c(c(-c4c(F)ccc(Cl)c4Cl)n2)OC[C@]3(C)C(N)=O)C2CC2)cc2cn(C3CC3)nc12 [Example 1289] | < 200 nM |
| CNC(=O)[C@@]1(C)COc2c1cc([C@@](O)(CNC(=O)c1cc(OC)c3nn(C4CC4)cc3c1)C1CC1)nc2-c1ccc(F)cc1 [Example 1290] | < 200 nM |
| COc1cc(C(=O)NC[C@](O)(c2cc3c(c(-c4ccc5c(c4)OC(F)(F)O5)n2)OC[C@]3(C)C(N)=O)C2CC2)cc2sc(C)nc12 [Example 1291] | < 200 nM |
| C[C@]1(C(N)=O)COc2c1cc([C@@](O)(CNC(=O)c1ccc3nc(C4CC4)sc3c1)C1CC1)nc2-c1ccc2c(c1)OC(F)(F)O2 [Example 1292] | > 200 nM |
| COc1cc(C(=O)NC[C@](O)(c2cc3c(c(-c4ccc5c(c4)OC(F)(F)O5)n2)OC[C@]3(C)C(N)=O)C2CC2)cc2sc(C3CC3)nc12 [Example 1293] | < 200 nM |

The compounds below were run on HMPV clinical isolate TN/1501/A1 (assay: HMPV antiviral assay Method-B (clinical isolate TN/1501/A1 in LLC-MK2 cells, ATP-Lite readout)). Settings: human metapneumovirus, LLC-MK2, 144 h, hMPV WT1501 (clinical isolate TN/1501/A1), 6 days.
Assay type: cell-based, Human metapneumovirus (HMPV)
Description: In vitro HMPV antiviral activity was evaluated using the clinical isolate TN/1501/A1 and LLC-MK2 cells (ATCC #CCL-7), an immortalized kidney epithelial cell line from Macaca mulatta. Compounds were resuspended in dimethyl sulfoxide (DMSO) at 10 mM and added to a 384-well source plate. The compounds were diluted and transferred onto 384-well assay plates using the Echo-650 automated liquid handling system (Beckman Coulter, Indiana). The test compounds were assessed in duplicate at a top concentration of 10 μM followed by 3-fold serial dilutions to give a total of 10 concentration points. DMSO control wells were also included on the assay plates and were either infected or not, acting as positive and negative controls. TN/1501/A1 virus infections were performed in-suspension with LLC-MK2 cells. The cells were washed twice with PBS and removed from the cell-culture flask with 0.25% trypsin-EDTA (Thermo Fisher Scientific, MA). The trypsin-EDTA was inactivated by resuspending in 2% fetal bovine serum (FBS) and OptiMEM (ThermoFisher Scientific, MA) containing 1% penicillin-streptomycin. Cells were pelleted by centrifuging for 5 minutes at 800 rpm, the supernatant was removed, and cells were suspended in PBS plus 100 μg/mL CaCl2). This step was performed twice. Cells were then resuspended in serum-free (SF)-OptiMEM containing 4 μg/mL TPCK-Trypsin (Sigma Aldrich, MO), 1% penicillin-streptomycin (ThermoFisher Scientific, MA) and 100 μg/mL CaCl2). Cells were counted and seeded at a density of 5,000 cells/well, 12.5 μL/well. Virus infections were done at a multiplicity of infection (MOI) of 0.014 with 12.5 μL added per well. SF-OptiMEM, 12.5 μL/well, was added to the appropriate wells to serve as a virus-free negative control for the assay. The final concentration of TPCK-trypsin was 2 μg/mL. Plates were incubated at 37° C., 5% CO2 for 6 days. After 6 days incubation, 12.5 μL of ATP-Lite (PerkinElmer, MA) was added to each well and the raw luminescence values were determined using the Envision 2104 (Perkin Elmer, MA). The average of the raw luminescence values for the cells and virus only positive control wells was subtracted from all conditions tested and the percent cell health was determined by dividing these values by the average of the cells only negative control wells. EC50 values were then calculated by non-linear regression using a four-parameter curve logistic equation. The curve fit model employed was XLFit Dose Response One Site Model 200: y=(A+(B/(1+((x/C)^D)))), where A is the minimum y value, B is the maximum y value, C is the log EC50 value, and D is the slope factor. […] EC50 ranges are as follows: A<0.5 μM; B>0.5 μM.

| Compound | EC50 |
| --- | --- |
| COc1cc(C(=O)NC[C@](O)(c2cc3c(c(-c4csc5c(F)cccc45)n2)OC[C@]3(C)C(N)=O)C2(F)CC2)cc2cn(C3(F)CC3)nc12 [Example 629] | < 500 nM |
| COc1cc(C(=O)NC[C@](O)(c2cc3c(c(-c4csc5c(F)cccc45)n2)OC[C@]3(C)C(N)=O)C2(F)CC2)cc2cn(C(F)F)nc12 [Example 630] | < 500 nM |

From patent US12612412B2, “Antiviral heterocyclic compounds” (Enanta Pharmaceuticals, Inc., priority 2021, dated 2026)
